Experimental data taken from PMC10553834, “Differentiating the roles of Mycobacterium tuberculosis substrate binding proteins, FecB and FecB2, in iron uptake” (PLOS Pathogens, 2023).

Target: FecB E339S (Mycobacterium tuberculosis, UniProt O53291, E339S)
Type: binding

**Q.** What does the source list for carboxymycobactin [apo-cMB]?
**A.** Fold-decrease: ~1.7; Kd: 4.8 ± 0.3 µM
